Data taken from ChEMBL document CHEMBL1201862, “PubChem BioAssay data set” (2004).
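All cell lines were grown in 96-well plates and treated with compound for 48 hours. GI50: concentration for 50% inhibition of growth.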 Calls of active or inactive are those of the source. Cut-off read from the data, not from the text of the source: active = GI50 up to about 1.1 µM and inactive = higher.

Tests used:
Assay in all cases: NCI tumour cell line growth inhibition, 48 h
[1] = system: 786-0
[2] = system: ACHN
[3] = system: CAKI-1
[4] = system: EKVX
[5] = system: HCT-15
[6] = system: HL-60
[7] = system: K562
[8] = system: KM12
[9] = system: OVCAR-8
[10] = system: SK-MEL-28
[11] = system: TK-10
[12] = system: UACC-257
[13] = system: UO-31
[14] = system: MOLT-4
[15] = system: SK-MEL-2

Row | Compound | GI50 [1] | GI50 [2] | GI50 [3] | GI50 [4] | GI50 [5] [µM] | GI50 [6] | GI50 [7] | GI50 [8] | GI50 [9] | GI50 [10] | GI50 [11] | GI50 [12] | GI50 [13] | GI50 [14] | GI50 [15]
1 | N#Cc1cc([N+](=O)[O-])ccc1NC(=O)C(=O)C(C(=O)/C=C/c1ccccc1)C1OC(=O)c2ccccc21 (configuration not stated) | > 100 µM (inactive) | > 100 µM (inactive) | > 100 µM (inactive) | > 100 µM (inactive) | > 100 | > 100 µM (inactive) | 13.9 µM (inactive) | > 100 µM (inactive) | > 100 µM (inactive) | > 100 µM (inactive) | > 100 µM (inactive) | > 100 µM (inactive) | > 100 µM (inactive) | – | –
2 | CC1=C(C(=O)Nc2cccc(Cl)c2)C(c2ccccc2O)C(C(=O)Nc2cccc(Cl)c2)=C(C)N1 | 15.7 µM (inactive) | 23.7 µM (inactive) | 22 µM (inactive) | 22.4 µM (inactive) | – | 21 µM (inactive) | 22.4 µM (inactive) | 16.8 µM (inactive) | 25.2 µM (inactive) | 17.1 µM (inactive) | 18.9 µM (inactive) | 20.2 µM (inactive) | 17.2 µM (inactive) | 25.2 µM (inactive) | 16.1 µM (inactive)
3 | NN1C(=O)C(CCO)S/C1=N/N=C1/SC(CCO)C(=O)N1N (configuration not stated) | > 100 µM (inactive) | > 100 µM (inactive) | > 100 µM (inactive) | > 100 µM (inactive) | > 100 | > 100 µM (inactive) | > 100 µM (inactive) | > 100 µM (inactive) | > 100 µM (inactive) | > 100 µM (inactive) | – | > 100 µM (inactive) | > 100 µM (inactive) | > 100 µM (inactive) | > 100 µM (inactive)
4 | CCCC1N2CCCCC2[C@@H]2c3[nH]c4ccccc4c3CCN12 (some centres not stated) | > 100 µM (inactive) | > 100 µM (inactive) | > 100 µM (inactive) | > 100 µM (inactive) | > 100 | > 100 µM (inactive) | > 100 µM (inactive) | – | > 100 µM (inactive) | > 100 µM (inactive) | – | > 100 µM (inactive) | > 100 µM (inactive) | > 100 µM (inactive) | > 100 µM (inactive)
5 | COc1cc(-c2c(C)c(C)nc(OC)c2C#N)cc(OC)c1OC | > 100 µM (inactive) | > 100 µM (inactive) | – | > 100 µM (inactive) | > 100 | 24.4 µM (inactive) | 58.7 µM (inactive) | > 100 µM (inactive) | > 100 µM (inactive) | > 100 µM (inactive) | > 100 µM (inactive) | 82.2 µM (inactive) | 31.5 µM (inactive) | 39.9 µM (inactive) | > 100 µM (inactive)
6 | CC(=O)OC1CC2(c3ccccc3)C(=O)c3ccccc3N2O1 (configuration not stated) | > 100 µM (inactive) | > 100 µM (inactive) | – | 78.3 µM (inactive) | > 100 | > 100 µM (inactive) | > 100 µM (inactive) | – | > 100 µM (inactive) | > 100 µM (inactive) | – | > 100 µM (inactive) | > 100 µM (inactive) | > 100 µM (inactive) | –
7 | O=C(/C=C/c1ccccc1)CC1OC(=O)c2ccccc21 (configuration not stated) | > 100 µM (inactive) | > 100 µM (inactive) | – | > 100 µM (inactive) | > 100 | 28.1 µM (inactive) | 75.5 µM (inactive) | 40.5 µM (inactive) | > 100 µM (inactive) | > 100 µM (inactive) | > 100 µM (inactive) | 81.8 µM (inactive) | > 100 µM (inactive) | 31 µM (inactive) | 46.3 µM (inactive)
8 | Cc1cc(N(CCC#N)CCC#N)ccc1/C=C1N=C(/C=C\c2ccccc2)N(NC(=O)CC(=O)Nc2ccccc2Cl)C\1=O | > 100 µM (inactive) | > 100 µM (inactive) | > 100 µM (inactive) | – | > 100 | > 100 µM (inactive) | > 100 µM (inactive) | > 100 µM (inactive) | > 100 µM (inactive) | > 100 µM (inactive) | > 100 µM (inactive) | > 100 µM (inactive) | > 100 µM (inactive) | > 100 µM (inactive) | > 100 µM (inactive)
9 | O=C1C(=O)N(c2ccc(Cl)cc2)C(=O)C(=O)C1c1nc2ccccc2s1 | > 100 µM (inactive) | 89.3 µM (inactive) | > 100 µM (inactive) | > 100 µM (inactive) | > 100 | – | > 100 µM (inactive) | > 100 µM (inactive) | > 100 µM (inactive) | > 100 µM (inactive) | > 100 µM (inactive) | > 100 µM (inactive) | > 100 µM (inactive) | 21.9 µM (inactive) | > 100 µM (inactive)
10 | CCC(C)(C)C(=O)O[C@H]1C[C@@H](C)C=C2C=C[C@H](C)[C@H](CC[C@@H]3C[C@@H](O)CC(=O)O3)[C@H]21 [SIMVASTATIN] | 9.33 µM (inactive) | 0.447 µM (active) | 4.03 µM (inactive) | 0.948 µM (active) | 1.12 | 3.01 µM (inactive) | 17.6 µM (inactive) | 8.45 µM (inactive) | 1.37 µM (inactive) | > 30 µM (inactive) | – | 17.3 µM (inactive) | 3.72 µM (inactive) | > 30 µM (inactive) | 0.522 µM (active)
11 | Oc1ccc2ccccc2c1/N=N/c1ccc(F)cc1 | > 100 µM (inactive) | > 100 µM (inactive) | > 100 µM (inactive) | – | > 100 | > 100 µM (inactive) | > 100 µM (inactive) | 72.4 µM (inactive) | > 100 µM (inactive) | > 100 µM (inactive) | > 100 µM (inactive) | – | 42.6 µM (inactive) | > 100 µM (inactive) | > 100 µM (inactive)
12 | CNS(=O)(=O)NNS(=O)(=O)c1ccc(OC)cc1 | > 100 µM (inactive) | > 100 µM (inactive) | > 100 µM (inactive) | > 100 µM (inactive) | > 100 | > 100 µM (inactive) | > 100 µM (inactive) | > 100 µM (inactive) | > 100 µM (inactive) | – | – | > 100 µM (inactive) | > 100 µM (inactive) | > 100 µM (inactive) | > 100 µM (inactive)
13 | Cc1cc(C)nc(NS(=O)(=O)c2ccc(Nc3c4ccccc4nc4c(C(=O)Nc5ccc(S(=O)(=O)N=C(N)N)cc5)cccc34)cc2)n1 | > 100 µM (inactive) | > 100 µM (inactive) | > 100 µM (inactive) | > 100 µM (inactive) | > 100 | – | > 100 µM (inactive) | > 100 µM (inactive) | > 100 µM (inactive) | 67.3 µM (inactive) | > 100 µM (inactive) | > 100 µM (inactive) | 85.3 µM (inactive) | > 100 µM (inactive) | > 100 µM (inactive)
14 | COC(=O)C12CCC(CC1=O)C2(C)C (configuration not stated) | > 100 µM (inactive) | > 100 µM (inactive) | – | > 100 µM (inactive) | > 100 | > 100 µM (inactive) | > 100 µM (inactive) | – | > 100 µM (inactive) | > 100 µM (inactive) | > 100 µM (inactive) | > 100 µM (inactive) | > 100 µM (inactive) | > 100 µM (inactive) | –
